Test results taken from ChEMBL document CHEMBL4725277, “Synthetic and therapeutic perspectives of nitrogen containing heterocycles as anti-convulsants” (Bioorg Med Chem, 2020).

Legend:
Mus musculus [1] = test: Anticonvulsant activity in albino mouse assessed as protection against 50 mA current-induced seizure at 25 mg/kg by maximal electroshock seizure test relative to control; format: functional
[2] = Protective index, ratio of TD50 for neurotoxicity in mouse to ED50 for anticonvulsant activity in mouse assessed as protection against 50 mA current-induced seizure; format: toxicity; conditions: in vivo, read-out: PI
Mus musculus [3] = organism: Mus musculus; test: Anticonvulsant activity in mouse assessed as protection against 50 mA current-induced seizure after 0.5 hrs by maximal electroshock seizure test; format: functional
[4] = Neurotoxicity in mouse by rotarod test; format: toxicity; conditions: in vivo
Mus musculus [5] = organism: Mus musculus; test: Anticonvulsant activity in albino mouse assessed as pentylenetetrazole-induced seizure; format: functional
Mus musculus [6] = organism: Mus musculus; test: Anticonvulsant activity in mouse assessed as protection against current-induced seizure by maximal electroshock seizure test; format: functional
[7] = Protective index, ratio of TD50 for neurotoxicity in mouse to ED50 for anticonvulsant activity in mouse assessed as protection against current-induced seizure; format: toxicity; conditions: in vivo, read-out: PI
[8] = Protective index, ratio of TD50 for neurotoxicity in mouse to ED50 for anticonvulsant activity in mouse assessed as protection against pentylenetetrazole-induced seizure; format: toxicity; conditions: in vivo, read-out: PI
[9] = Neurotoxicity in ip and po injected mouse; format: toxicity, organism-based; conditions: in vivo
[10] = Protective index, ratio of TD50 for neurotoxicity in ip and po injected mouse to ED50 for anticonvulsant activity in mouse assessed as protection against 50 mA current-induced seizure; format: toxicity, organism-based; conditions: in vivo, read-out: PI
Mus musculus [11] = organism: Mus musculus; test: Anticonvulsant activity in albino mouse assessed as current-induced seizure relative to control; format: functional
Mus musculus [12] = organism: Mus musculus; test: Anticonvulsant activity in albino mouse assessed as current-induced seizure latency time; format: functional
[13] = Neurotoxicity in ip injected albino mouse; format: toxicity, organism-based; conditions: in vivo
[14] = Protective index, ratio of TD50 for neurotoxicity in ip injected albino mouse to ED50 for anticonvulsant activity in ip injected albino mouse assessed as protection against 50 mA current-induced seizure; format: toxicity, organism-based; conditions: in vivo
Mus musculus [15] = test: Anticonvulsant activity in ip injected albino mouse assessed as protection against 50 mA current-induced seizure by maximal electroshock seizure test; format: functional
Mus musculus [16] = organism: Mus musculus; test: Anticonvulsant activity in KunMing mouse assessed as protection against current-induced seizure by maximal electroshock seizure test; format: functional
Mus musculus [17] = organism: Mus musculus; test: Anticonvulsant activity in KunMing mouse assessed as protection against pentylenetetrazole-induced seizure by maximal electroshock seizure test; format: functional
[18] = Neurotoxicity in KunMing mouse by rotarod test; format: toxicity; conditions: KunMing, in vivo, read-out: TD50
[19] = Protective index, ratio of TD50 for neurotoxicity in KunMing mouse to ED50 for anticonvulsant activity in KunMing mouse assessed as protection against pentylenetetrazole-induced seizure; format: toxicity; conditions: in vivo, read-out: PI
[20] = Protective index, ratio of TD50 for neurotoxicity in KunMing mouse to ED50 for anticonvulsant activity in KunMing mouse assessed as protection against current-induced seizure; format: toxicity; conditions: in vivo, read-out: PI
Mus musculus [21] = organism: Mus musculus; test: Anticonvulsant activity in KunMing mouse assessed as protection against 50 mA current-induced seizure after 0.5 to 4 hrs by maximal electroshock seizure test; format: functional; conditions: time hrs 0.5-4
Mus musculus [22] = organism: Mus musculus; test: Anticonvulsant activity in albino mouse assessed as pentylenetetrazole-induced seizure measured after 30 mins; format: functional; conditions: 0.5 h
Mus musculus [23] = test: Anticonvulsant activity in ip injected albino mouse assessed as protection against 50 mA current-induced seizure after 0.5 to 4 hrs interval by maximal electroshock seizure test; format: functional; conditions: time hrs 0.5-4
[24] = Protective index, ratio of TD50 for neurotoxicity in ip injected albino mouse to ED50 for anticonvulsant activity in albino mouse assessed as pentylenetetrazole-induced seizure; format: toxicity, organism-based; conditions: in vivo
Mus musculus [25] = organism: Mus musculus; test: Anticonvulsant activity in albino mouse assessed as protection against 50 mA current-induced seizure by maximal electroshock seizure test; format: functional
Mus musculus [26] = test: Anticonvulsant activity in albino mouse assessed as protection against 50 mA current-induced seizure at 50 mg/kg by maximal electroshock seizure test relative to control; format: functional
Mus musculus [27] = test: Anticonvulsant activity in albino mouse assessed as protection against 50 mA current-induced seizure at 100 mg/kg by maximal electroshock seizure test relative to control; format: functional
Mus musculus [28] = test: Anticonvulsant activity in albino mouse assessed as protection against 50 mA current-induced seizure at 200 mg/kg by maximal electroshock seizure test relative to control; format: functional
Mus musculus [29] = organism: Mus musculus; test: Anticonvulsant activity in albino mouse assessed as protection against 50 mA current-induced seizure; format: functional; conditions: read-out: PD50
[30] = Lipophilicity, log P of the compound; format: physicochemical; conditions: octanol/water
[31] = Neurotoxicity in albino rat at 100 mg/kg, ip after 30 mins (reference value: 2%); format: toxicity, organism-based; conditions: in vivo, 0.5 h
Mus musculus [32] = organism: Mus musculus; test: Anticonvulsant activity in KunMing mouse assessed as protection against 50 mA current-induced seizure after 30 mins interval by maximal electroshock seizure test; format: functional; conditions: 0.5 h
[33] = Neurotoxicity in KunMing mouse after 30 mins by rotarod test; format: toxicity; conditions: in vivo
[34] = Protective index, ratio of TD50 for neurotoxicity in KunMing mouse to ED50 for anticonvulsant activity in KunMing mouse assessed as protection against 50 mA current-induced seizure; format: toxicity; conditions: in vivo, read-out: PI

Q: For `Clc1ccc(Nc2nnc(-c3ccncc3)s2)cc1`, which Activity (Mus musculus [1]) is on record?
A: 100%

Q: Which results are given for `FC(F)(F)c1cccc(COc2nn3cnnc3c3ccccc23)c1`?
A: selectivity ratio [2]: 91.7; ED50 (Mus musculus [3]; Mus musculus, read-out: ED50): 9.3 mg/kg; TD50 [4]: 853 mg/kg

Q: With `Cc1ccc(NC(=S)N2C(=S)N=C(c3ccccc3)CC2c2ccc(O)cc2)cc1` (centres undefined) as the compound, how does the ED50 (Mus musculus [5]) read?
A: 278 mg/kg

Q: What about the ED50 (Mus musculus [6]) of the same compound?
A: 15.6 mg/kg

Q: And the TD50 [4]?
A: 534 mg/kg

Q: What about the selectivity ratio [7] of the same compound?
A: 34.2

Q: And the selectivity ratio [8]?
A: 1.9

Q: For `O=c1c2ccccc2n2cnnc2n1-c1ccc(Cl)cc1`, which ED50 (Mus musculus [3]) is on record?
A: 27.39

Q: What about the TD50 [9] of the same compound?
A: > 700 mg/kg

Q: What about the selectivity ratio [10] of the same compound?
A: > 25.6

Q: With `CC(=O)Oc1cc2ccccc2cc1-c1nnc(N(CCc2ccccc2)C(C)=O)s1` as the compound, how does the Activity (Mus musculus [11]) read?
A: 90%

Q: What about the Time (Mus musculus [12]) of the same compound?
A: 5.92 min

Q: What does the source list for `Nc1nc(-c2ccccc2)nnc1C(=O)N1CCCC1c1noc2cc(Cl)ccc12` (centres undefined)?
A: TD50 [13]: 103 mg/kg; selectivity ratio ([14]; read-out: Ratio): > 18; ED50 (Mus musculus [15]): 5.7 mg/kg

Q: Which ED50 (Mus musculus [16]) does the source give for `Clc1ccc(C2Cc3nncn3-c3ccsc32)cc1` (centres undefined) here?
A: 9.5 mg/kg

Q: And the ED50 (Mus musculus [17])?
A: 20.5 mg/kg

Q: And the TD50 [18]?
A: 456 mg/kg

Q: And the selectivity ratio [19]?
A: 22.2

Q: And the selectivity ratio [20]?
A: 48

Q: For `O=c1[nH]nc2n1-c1ccc(OCc3ccc(F)cc3)cc1SCC2`, which selectivity ratio [2] is on record?
A: 12.6

Q: What about the TD50 [4] of the same compound?
A: 331 mg/kg

Q: And the ED50 (Mus musculus [21])?
A: 26.3 mg/kg

Q: For `COc1ccc(N2C(=S)N=C(c3ccccc3)CC2c2ccccc2)cc1` (centres undefined), which ED50 (Mus musculus [22]) is on record?
A: 378 mg/kg

Q: What about the ED50 (Mus musculus [23]) of the same compound?
A: 16.8 mg/kg

Q: And the TD50 [13]?
A: 534 mg/kg

Q: What about the selectivity ratio ([14]; read-out: PI) of the same compound?
A: 31.8

Q: What about the selectivity ratio ([24]; read-out: PI) of the same compound?
A: 1.4

Q: What does the source list for `Nc1nnc(-c2ccccc2OCc2ccccc2F)o1`?
A: ED50 (Mus musculus [22]): 9 mg/kg; ED50 (Mus musculus [25]): 16.2 mg/kg

Q: Which Activity (Mus musculus [26]) does the source give for `O=C1CN=C2c3ccccc3N=C(COc3ccc(Cl)cc3Cl)N2N1` here?
A: 60%

Q: What about the Activity (Mus musculus [27]) of the same compound?
A: 90%

Q: What about the Activity (Mus musculus [28]) of the same compound?
A: 90%

Q: What about the ED50 (Mus musculus [29]) of the same compound?
A: 87.5 mg/kg

Q: For `COc1ccc(-c2nc(N/N=C/c3ccc(Br)cc3)[nH]c(=O)c2C#N)cc1`, which logP [30] is on record?
A: 2.45

Q: Which Activity (Mus musculus [1]) does the source give for `Clc1ccc(Nc2nnc(-c3ccncc3)o2)cc1` here?
A: 100%

Q: For `COc1ccc(-c2nc(N/N=C/c3ccc(O)cc3)[nH]c(=O)c2C#N)cc1`, which logP [30] is on record?
A: 1.27

Q: For `CN(C)CCOc1ccc2c(c1)C(=O)C(=O)N2`, which Activity [31] is on record?
A: 7%

Q: With `Clc1ccc(Oc2cccc3nncn23)cc1` as the compound, how does the ED50 (Mus musculus [6]) read?
A: 13.2 mg/kg

Q: What about the TD50 [4] of the same compound?
A: 63.4 mg/kg

Q: And the selectivity ratio [7]?
A: 4.8

Q: With `CCCCOc1ccc2c(c1)sc1n[nH]c(=O)n12` as the compound, how does the ED50 (Mus musculus [6]) read?
A: 13.6 mg/kg

Q: What about the TD50 [4] of the same compound?
A: > 700 mg/kg

Q: And the selectivity ratio [7]?
A: > 51

Q: What does the source list for `CCCCCCOc1ccc2c(c1)CCc1nnc(C(N)=O)n1-2`?
A: ED50 (Mus musculus [32]): 30.1 mg/kg; TD50 at 0.5 h [33]: 286 mg/kg; selectivity ratio [34]: 9.5

Q: What does the source list for `CN(C)Nc1ccc(/C=N/Nc2nnc(-c3ccccc3)nc2Cc2cccc(Cl)c2)cc1`?
A: ED50 (Mus musculus [22]): 92 mg/kg; ED50 (Mus musculus [23]): 54.3 mg/kg; TD50 [13]: 435 mg/kg; selectivity ratio ([14]; read-out: Ratio): 8.01; selectivity ratio ([24]; read-out: Ratio): 4.73
